pIC50: −log10 of the molar value.
Experiments:
[1] = system: Lymphoma (Non-Hodgkin) LYXFNH HUT-78; test: CFA, LYXFNH HUT-78; assay type: cell-based, human; conditions: Cell line/CFA
Description: (§1) CFA was performed by Charles River Laboratories (Freiburg, Germany) in 96-well plate format according to a modified two-layer soft agar assay. The origin of the tumor xenografts has been described (Fiebig et al. 1989, incorporated herein by reference). The list of tumors used in this study is detailed in Table 1.
The cell lines tested were from a large collection of patient-derived (PDX) and cell line-derived (CDX) human tumor xenografts growing subcutaneously in immunodeficient nude mice (Oncotest GmbH, a Charles River Division). The majority of the xenografts have been directly transplanted from patients and passaged in nude mice. The xenografts retain most of the characteristics of the parental patient tumors including histology and sensitivity to anti-cancer drugs, and efficacy tests in tumor-bearing nude mice largely replicate the response of the donor patient to standard anti-cancer drugs. The cell lines were from publicly available cell lines, including cell lines derived from solid tumors and hematological malignancies. […]
The clonogenic assay was carried out in a 96 well plate format using ultra low attachment plates. […] Cultures were incubated at 37° C. and 7.5% CO2 in a humidified atmosphere for 8 to 14 days and monitored closely for colony growth using an inverted microscope. […]

Head & Neck HNXF 536 = test: CFA, HNXF 536; assay type: cell-based, human; conditions: PDX/CFA
Description: as §1

Lung (SCLC) LXFS 573 = test: CFA, LXFS 573; assay type: cell-based, human; conditions: PDX/CFA
Description: as §1

VDAC1/HK1 complex = target: T1, VDAC1/HK1 complex (Homo sapiens, UniProt P19367); test: Microscale Thermophoresis (MST) dissociation of VDAC1/HK1 complex; assay type: binding; conditions: cell-free MST
T1 construct: host or cells: E. coli (HK1); sheep liver mitochondria (VDAC1)
Description: A431 (human skin SCC), HT-297.T (human AK), and HaCaT transformed normal keratinocyte cell lines were from ATCC (Manassas, VA) and were maintained in DMEM supplemented with 10% FCS, 4 mM L-Gln, 1 mM sodium pyruvate, 100 U/mL penicillin, 1 μg/mL streptomycin. Human HK1 and HK2 plasmids were purchased from Addgene (Cambridge, MA) and were purified from E. Coli. VDAC1 was purified from sheep liver mitochondria as described (Arbel et al. 2012, incorporated herein by reference). Human skin tissue microarray (SK208 and SK 805) were purchased from US Biomax Inc. (Rockville, MD).
Studies were conducted on Nanotemper Monolith NT.115 (Munich, Germany). HK1 and HK2 were labeled using Monolith™ NT.115 Protein Labeling Kit BLUE-NHS. As a preliminary study to form the VDAC1-HK complexes, various concentrations of VDAC1 were added to 67 nM HK1 or 71 nM HK2. The preferred VDAC1 concentration was determined to be 1.5 μM. For dissociation studies, HKs were pre-incubated with VDAC1 for 10 minutes and various concentrations of Formula C were added for an additional 10 minutes. MST default parameters were used and analysis was with Nanotemper analysis software. […]
The activity of Formula C in a cell-free assay was evaluated using Microscale Thermophoresis (MST) analysis, which is based on altered movement of a protein in a temperature gradient when bound to other molecules. […]

T1 sequence (P19367 whole entry, one chain of several): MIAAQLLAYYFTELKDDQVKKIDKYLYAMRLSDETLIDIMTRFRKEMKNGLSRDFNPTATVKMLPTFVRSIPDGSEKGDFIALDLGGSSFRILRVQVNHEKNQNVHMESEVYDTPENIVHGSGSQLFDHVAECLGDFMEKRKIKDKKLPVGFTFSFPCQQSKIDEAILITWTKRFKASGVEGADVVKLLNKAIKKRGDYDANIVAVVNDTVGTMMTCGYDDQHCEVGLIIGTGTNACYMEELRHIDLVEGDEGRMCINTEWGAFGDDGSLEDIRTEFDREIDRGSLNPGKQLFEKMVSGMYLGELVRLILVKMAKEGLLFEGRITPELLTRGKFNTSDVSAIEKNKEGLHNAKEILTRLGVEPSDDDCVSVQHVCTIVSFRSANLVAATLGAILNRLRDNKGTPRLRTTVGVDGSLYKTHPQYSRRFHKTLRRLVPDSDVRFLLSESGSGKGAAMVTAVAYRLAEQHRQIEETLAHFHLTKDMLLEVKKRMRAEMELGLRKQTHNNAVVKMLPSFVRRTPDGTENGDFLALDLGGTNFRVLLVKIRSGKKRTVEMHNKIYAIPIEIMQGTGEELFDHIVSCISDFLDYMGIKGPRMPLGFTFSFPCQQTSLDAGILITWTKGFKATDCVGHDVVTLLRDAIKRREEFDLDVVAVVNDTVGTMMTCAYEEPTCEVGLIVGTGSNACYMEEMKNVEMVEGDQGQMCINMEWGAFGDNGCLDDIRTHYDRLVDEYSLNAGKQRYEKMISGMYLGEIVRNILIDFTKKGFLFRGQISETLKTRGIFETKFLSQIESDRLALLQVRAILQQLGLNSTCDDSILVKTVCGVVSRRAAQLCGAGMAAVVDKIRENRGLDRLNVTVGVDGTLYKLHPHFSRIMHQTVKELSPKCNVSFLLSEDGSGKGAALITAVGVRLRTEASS

With CC/C=C\CC1C(=O)CCC1CC(=O)Oc1cccc2cccnc12 (stereo not shown) [Formula C] the pIC50 [1] was 6.02, the pIC50 (Head & Neck HNXF 536) was 5.84 and the pIC50 (Lung (SCLC) LXFS 573) was 5.71. The “effect on the VDAC1/HK1 complex” value (VDAC1/HK1 complex) was “no effect”.
